Measured values from patent US9125913B2, “Bcl-2-selective apoptosis-inducing agents for the treatment of cancer and immune diseases” (AbbVie Inc., priority 2008, dated 2015).

Experiments:
GST-Bcl-2 = experiment: TR-FRET binding assay, Bcl-2; details: TR-FRET Ki values
In short: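 Ki values come from Wang's competitive-binding equation applied to TR-FRET signal (excitation 340/35 nm; emission 520/525 nm F-Bak peptide, 495/510 nm Tb antibody). Protein, probe and antibody incubated with compound 3 h at room temperature; dilution series began at 50 μM as 2× stock in 10% DMSO.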

FL5.12/Bcl-2 cells = experiment: FL5.12/Bcl-2 cell viability assay; type: cell-based, murine; details: ratio of canine platelet EC50 to FL5.12/Bcl-2 EC50
Source text: FL5.12 is an IL-3 dependent prolymphocytic murine cell line that undergoes apoptosis upon IL-3 withdrawal as a result of the upregulation of pro-apoptotic Bcl-2 proteins such as Bim and Puma. Stable overexpression of anti-apoptotic Bcl-2 protein (FL5.12/Bcl-2) protects against apoptosis induced by IL-3 withdrawal by sequestration of Bim and Puma. […] The ability of compounds to kill FL5.12/Bcl-2 cells upon IL-3 withdrawal is a direct measure of the compounds' ability to inhibit anti-apoptotic Bcl-2 protein function.
Wild type FL5.12/Bcl-2 overexpressing stable transfectants were cultured in RPMI-1640 supplemented with 2 mM L-glutamine, 10% FBS, 1 mM sodium pyruvate, 2 mM HEPES, 1% penicillin/streptomycin (Invitrogen), 57 μM β-ME, and 10% WEHI-3B conditioned medium (source of IL-3) and maintained at 37° C. containing 5% CO2. 1×10^6 cells/ml were washed 1×PBS and resuspended in medium not supplemented with 10% WEHI-3B for 48 hrs prior to cytotoxicity assays. Cells were then treated for an additional 24 hrs in the presence of various concentrations of the indicated compounds. Cell viability was assessed by CellTitre Glo assay (Promega Corp.) according to the manufacturer's recommendations.

## CN1CCC(Nc2ccc(S(=O)(=O)NC(=O)c3ccc(N4CCN(CC5=C(c6ccc(Cl)cc6)CC(C)(C)C5)CC4)cc3Oc3cccc4[nH]ccc34)cc2[N+](=O)[O-])CC1 [Example 144, 4-(4-{[2-(4-chlorophenyl)-4,4-dimethylcyclopent-1-en-1-yl]methyl}piperazin-1-yl)-2-(1H-indol-4-yloxy)-N-({4-[(1-methylpiperidin-4-yl)amino]-3-nitrophenyl}sulfonyl)benzamide]
GST-Bcl-2
  Binding selectivity ratio (Bcl-XL Ki/Bcl-2 Ki): >12.2
FL5.12/Bcl-2 cells
  Selectivity Ratio (Platelet EC50/FL5.12/Bcl-2 EC50): 864

## CN(C)CCCNc1ccc(S(=O)(=O)NC(=O)c2ccc(N3CCN(CC4=C(c5ccc(Cl)cc5)CC(C)(C)CC4)CC3)cc2Oc2cccc3[nH]ccc23)cc1[N+](=O)[O-] [Example 57, 4-(4-{[2-(4-chlorophenyl)-4,4-dimethylcyclohex-1-en-1-yl]methyl}piperazin-1-yl)-N-[(4-{[3-(dimethylamino)propyl]amino}-3-nitrophenyl)sulfonyl]-2-(1H-indol-4-yloxy)benzamide]
GST-Bcl-2
  Binding selectivity ratio (Bcl-XL Ki/Bcl-2 Ki): 68.7
FL5.12/Bcl-2 cells
  Selectivity Ratio (Platelet EC50/FL5.12/Bcl-2 EC50): 1077

## CN1CCN(CCCNc2ccc(S(=O)(=O)NC(=O)c3ccc(N4CCN(CC5=C(c6ccc(Cl)cc6)CC(C)(C)CC5)CC4)cc3Oc3cccc4[nH]ccc34)cc2[N+](=O)[O-])CC1 [Example 99, 4-(4-{[2-(4-chlorophenyl)-4,4-dimethylcyclohex-1-en-1-yl]methyl}piperazin-1-yl)-2-(1H-indol-4-yloxy)-N-[(4-{[3-(4-methylpiperazin-1-yl)propyl]amino}-3-nitrophenyl)sulfonyl]benzamide]
GST-Bcl-2
  Binding selectivity ratio (Bcl-XL Ki/Bcl-2 Ki): 138.3
FL5.12/Bcl-2 cells
  Selectivity Ratio (Platelet EC50/FL5.12/Bcl-2 EC50): 2440

## CN(C)CCCOc1ccc(S(=O)(=O)NC(=O)c2ccc(N3CCN(CC4=C(c5ccc(Cl)cc5)CC(C)(C)CC4)CC3)cc2Oc2cccc3[nH]ccc23)cc1[N+](=O)[O-] [Example 106, 4-(4-{[2-(4-chlorophenyl)-4,4-dimethylcyclohex-1-en-1-yl]methyl}piperazin-1-yl)-N-({4-[3-(dimethylamino)propoxy]-3-nitrophenyl}sulfonyl)-2-(1H-indol-4-yloxy)benzamide]
FL5.12/Bcl-2 cells
  Selectivity Ratio (Platelet EC50/FL5.12/Bcl-2 EC50): 1657

## CC1(C)CCC(CN2CCN(c3ccc(C(=O)NS(=O)(=O)c4ccc(NN5CCOCC5)c([N+](=O)[O-])c4)c(Oc4ccc5[nH]ccc5c4)c3)CC2)=C(c2ccc(Cl)cc2)C1 [EXAMPLE 260, 4-(4-{[2-(4-chlorophenyl)-4,4-dimethylcyclohex-1-en-1-yl]methyl}piperazin-1-yl)-2-(1H-indol-5-yloxy)-N-{[4-(morpholin-4-ylamino)-3-nitrophenyl]sulfonyl}benzamide]
GST-Bcl-2
  Binding selectivity ratio (Bcl-XL Ki/Bcl-2 Ki): >607.2

## CC1(C)CCC(CN2CCN(c3ccc(C(=O)NS(=O)(=O)c4cccc(C(=O)NCC5CCOCC5)c4)c(Oc4ccc5[nH]ccc5c4)c3)CC2)=C(c2ccc(Cl)cc2)C1 [EXAMPLE 345, 4-(4-{[2-(4-chlorophenyl)-4,4-dimethylcyclohex-1-en-1-yl]methyl}piperazin-1-yl)-2-(1H-indol-5-yloxy)-N-[(3-{[(tetrahydro-2H-pyran-4-ylmethyl)amino]carbonyl}phenyl)sulfonyl]benzamide]
GST-Bcl-2
  Binding selectivity ratio (Bcl-XL Ki/Bcl-2 Ki): >575.9

## O=C(NS(=O)(=O)c1ccc(NCC2CCOCC2)c(S(=O)(=O)C(F)(F)F)c1)c1ccc(N2CCN(Cc3ccccc3-c3ccc(Cl)cc3)CC2)cc1Oc1ccccc1 [Example 163, 4-{4-[(4′-chloro-1,1′-biphenyl-2-yl)methyl]piperazin-1-yl}-2-phenoxy-N-({4-[(tetrahydro-2H-pyran-4-ylmethyl)amino]-3-[(trifluoromethyl)sulfonyl]phenyl}sulfonyl)benzamide]
GST-Bcl-2
  Binding selectivity ratio (Bcl-XL Ki/Bcl-2 Ki): >117.5

## O=C(NS(=O)(=O)c1ccc(NCCn2nccn2)c([N+](=O)[O-])c1)c1ccc(N2CCN(Cc3ccccc3-c3ccc(Cl)cc3)CC2)cc1Oc1ccccc1 [Example 165, 4-{4-[(4′-chloro-1,1′-biphenyl-2-yl)methyl]piperazin-1-yl}-N-[(3-nitro-4-{[2-(2H-1,2,3-triazol-2-yl)ethyl]amino}phenyl)sulfonyl]-2-phenoxybenzamide]
GST-Bcl-2
  Binding selectivity ratio (Bcl-XL Ki/Bcl-2 Ki): 44.5

## O=C(NS(=O)(=O)c1ccc(NCC2CCOCC2)c([N+](=O)[O-])c1)c1ccc(N2CCN(Cc3cc(OCCN4CCOCC4)ccc3-c3ccc(Cl)cc3)CC2)cc1Oc1ccccc1 [Example 115, 4-(4-{[4′-chloro-4-(2-morpholin-4-ylethoxy)-1,1′-biphenyl-2-yl]methyl}piperazin-1-yl)-N-({3-nitro-4-[(tetrahydro-2H-pyran-4-ylmethyl)amino]phenyl}sulfonyl)-2-phenoxybenzamide]
GST-Bcl-2
  Binding selectivity ratio (Bcl-XL Ki/Bcl-2 Ki): 156.4

## CN1CCC(Nc2ccc(S(=O)(=O)NC(=O)c3ccc(N4CCN(CC5=C(c6ccc(Cl)cc6)CC(C)(C)CC5)C(CO)C4)cc3Oc3ccc4[nH]ccc4c3)cc2[N+](=O)[O-])CC1 (centres unmarked) [EXAMPLE 218, 4-[4-{[2-(4-chlorophenyl)-4,4-dimethylcyclohex-1-en-1-yl]methyl}-3-(hydroxymethyl)piperazin-1-yl]-2-(1H-indol-5-yloxy)-N-({4-[(1-methylpiperidin-4-yl)amino]-3-nitrophenyl}sulfonyl)benzamide]
GST-Bcl-2
  Binding selectivity ratio (Bcl-XL Ki/Bcl-2 Ki): 738.2

## COC1CCC(Nc2ccc(S(=O)(=O)NC(=O)c3ccc(N4CCN(CC5=C(c6ccc(Cl)cc6)CC(C)(C)CC5)CC4)cc3Oc3ccc4[nH]ccc4c3)cc2[N+](=O)[O-])CC1 (centres unmarked) [EXAMPLE 265, 4-(4-{[2-(4-chlorophenyl)-4,4-dimethylcyclohex-1-en-1-yl]methyl}piperazin-1-yl)-2-(1H-indol-5-yloxy)-N-({4-[(4-methoxycyclohexyl)amino]-3-nitrophenyl}sulfonyl)benzamide]
GST-Bcl-2
  Binding selectivity ratio (Bcl-XL Ki/Bcl-2 Ki): >388.8

## O=C(NS(=O)(=O)c1ccc(NC2CCN(C3CCOCC3)CC2)c([N+](=O)[O-])c1)c1ccc(N2CCN(CC3=C(c4ccc(Cl)cc4)CCC(O)C3)CC2)cc1Oc1ccc2[nH]ccc2c1 (centres unmarked) [EXAMPLE 225, 4-(4-{[2-(4-chlorophenyl)-5-hydroxycyclohex-1-en-1-yl]methyl}piperazin-1-yl)-2-(1H-indol-5-yloxy)-N-({3-nitro-4-[(1-tetrahydro-2H-pyran-4-ylpiperidin-4-yl)amino]phenyl}sulfonyl)benzamide]
GST-Bcl-2
  Binding selectivity ratio (Bcl-XL Ki/Bcl-2 Ki): >348.2

## CN(C)CC#Cc1ccc(-c2ccc(Cl)cc2)c(CN2CCN(c3ccc(C(=O)NS(=O)(=O)c4ccc(NCC5CCOCC5)c([N+](=O)[O-])c4)c(Oc4cccc5[nH]ccc45)c3)CC2)c1 [EXAMPLE 209, 4-[4-({4′-chloro-4-[3-(dimethylamino)prop-1-ynyl]-1,1′-biphenyl-2-yl}methyl)piperazin-1-yl]-2-(1H-indol-4-yloxy)-N-({3-nitro-4-[(tetrahydro-2H-pyran-4-ylmethyl)amino]phenyl}sulfonyl)benzamide]
GST-Bcl-2
  Binding selectivity ratio (Bcl-XL Ki/Bcl-2 Ki): >2476.0

## CO[C@H]1CC[C@H](CNc2ccc(S(=O)(=O)NC(=O)c3ccc(N4CCN(CC5=C(c6ccc(Cl)cc6)CC(C)(C)CC5)CC4)cc3Oc3ccc4[nH]ccc4c3)cc2[N+](=O)[O-])CC1 [EXAMPLE 311, Trans-4-(4-{[2-(4-chlorophenyl)-4,4-dimethylcyclohex-1-en-1-yl]methyl}piperazin-1-yl)-2-(1H-indol-5-yloxy)-N-[(4-{[(4-methoxycyclohexyl)methyl]amino}-3-nitrophenyl)sulfonyl]benzamide]
GST-Bcl-2
  Binding selectivity ratio (Bcl-XL Ki/Bcl-2 Ki): >2538.5
